Consider 3 molecules from article PMC7079008, “Compactness of Protein Folds Alters Disulfide‐Bond Reducibility by Three Orders of Magnitude: A Comprehensive Kinetic Case Study on the Reduction of Differently Sized Tryptophan Cage Model Proteins” (Chembiochem, 2019).

A short description of this series: SS bond reduction by TCEP monitored by 1H NMR. In kind it is physicochemical. As to conditions: 1.7 mM protein, twofold excess of TCEP, 15 °C, pH 7; for TCEP: Elapsed time to steady state / TCEP: k1 / TCEP: t1/2 of reduction: 1H NMR; for TCEP: Conversion rate: 1H NMR Trp Hε1 integrals; for TCEP: k1: parameter estimation; for TCEP: t1/2 of reduction: calculated from k1 (Eq. 12). The text has this:
The SS bond reduction by TCEP is a bimolecular nucleophilic substitution (SN2) reaction.37 Thus, both the concentration of the oxidized form of the protein [_SS] and that of the RA contribute to the rate of the reduction. In an ideal case, we should consider only nucleophilic attack of the RA (k 1), but, as we explained previously, in practice, we also have to take into account back oxidation (k 2), which takes place simultaneously, and, in some cases, depending on the size and shape of the protein, precipitation (k 3; Figure 5). The mechanism of reduction, therefore, can be described by Equations (2), (3), (4):(2) SS+RAred→k12SH+RAox (3) 2SH+O2→k2SS (4) 2SH→k3SSprecipitated
By fitting this model to the concentration–time functions determined by means of NMR spectroscopy, k 1, k 2, and k 3 can be determined, and half‐lives can be calculated. We focused on the determination of the reduction rate constants k 1; therefore, sampling was more frequent in the reduction phase (stage I; Figure 5 B). Based on parameter estimation (see the Experimental Section), k 2 and k 3 are very often either negligibly small, or, due to a lack of sufficient data, cannot be confidently estimated. Obtaining key kinetic parameters allowed us to describe and compare the reduction kinetics of the SS‐containing miniproteins under various experimental conditions. Some protocols reported in the literature apply extreme conditions, such as high temperature (e.g., 50–80 °C), to obtain short reduction times; this is clearly unsuitable for maintaining the integrity of the protein, or >20‐fold molar excess of reagent. By performing the reduction of E19_SS (0.8 mM) under such conditions (60 °C with 18‐fold TCEP excess), the reaction seemed almost instantaneous (t 1/2<5 min), but the sample became opalescent and side reactions (e.g., precipitation) were instantly detected. Similarly to most globular proteins, the conformational ensemble of E19_2SH at 60 °C is distinctly different from that of 15 °C; thus presenting many more unfolded states. The folded fraction of E19_2SH is 64 % at 15 °C, whereas it is 41 % at 60 °C, according to FUV‐ECD analysis. Instead of intramolecular reoxidation, undesirable intermolecular reoxidation might occur between particles. […] In principle, the reduction rate can be enhanced at lower T by increasing the TCEP molar ratio (15–20‐fold molar excess); however, this also triggers obscure unwanted processes (Figure S5). Experiments were repeated at different temperatures (15, 25, and 37 °C) with 0.8 mM protein and 18‐fold excess of TCEP (Table 2 and Figure S6). The Arrhenius equation allows the activation energy (E a) of the redox reaction to be derived, resulting in a value of about 44.3 kJ mol^−1. For comparison, the activation energy of thiol–disulfide exchange between methylthiolate and oxidized DTT was calculated to be 62 kJ mol^−1.76 Both FUV‐ECD and NMR spectroscopy derived structural information support the high conformational similarity between E19_SS and E19_2SH; therefore, E a is likely to be used for the redox reaction, rather than for the conformational switch between the two conformational states (Table 1). […] Additional experiments were performed to investigate the effect of the protein/RA ratio as a practical perspective (Figure S7). The above‐described NMR spectroscopy methodology provides high‐resolution information about the reduction mechanism, relative to that of the more rapid NUV‐ECD approach, and thus, details of the reduction of all four −SS− protein models were obtained through NMR spectroscopy.
Monitoring reduction kinetics: Peptide samples were prepared between 0.8 and 1.8 mM in 50 mM NaH2PO4–Na2HPO4 buffer (600 μL, pH 6.95), with 10 % D2O. A 0.1 M solution of NaOH was used to set the pH to 7. […]

Where a SMILES comes first, the peptide text is derived from it. Bridges are numbered along the chain shown (N, C = ends). A value given as a limit tells only on which side of the number the result lay.

Take `CC[C@H](C)[C@@H]1NC(=O)[C@H](Cc2ccc(O)cc2)NC(=O)[C@H](CC(C)C)NC(=O)[C@H](CCCNC(=N)N)NC(=O)[C@H](C(C)C)NC(=O)[C@@H](N)CSSC[C@@H](C(=O)O)NC(=O)[C@@H]2CCCN2C(=O)[C@@H]2CCCN2C(=O)[C@@H]2CCCN2C(=O)[C@H](CCCNC(=N)N)NC(=O)CNC(=O)[C@H](CO)NC(=O)[C@H](CO)NC(=O)[C@@H]2CCCN2C(=O)CNC(=O)CNC(=O)[C@H](CC(=O)O)NC(=O)[C@H](CCCCN)NC(=O)[C@H](CC(C)C)NC(=O)[C@H](Cc2c[nH]c3ccccc23)NC(=O)[C@H](CCC(N)=O)NC1=O` [E2_SS] (H-CVRLYIQWLKDGGPSSGRPPPC-OH; disulfide 1-22): the “TCEP: Elapsed time to steady state” value is on record as less than 5 min and the “TCEP: Conversion rate” value turned out to be 100%.
With `CC[C@H](C)[C@@H]1NC(=O)[C@H](Cc2ccc(O)cc2)NC(=O)[C@H](CC(C)C)NC(=O)[C@H](CCCNC(=N)N)NC(=O)[C@H](C(C)C)NC(=O)[C@@H](NC(=O)[C@H](CCC(=O)O)NC(=O)[C@H](CCC(=O)O)NC(=O)[C@@H](N)CCC(=O)O)CSSC[C@@H](C(=O)O)NC(=O)[C@@H]2CCCN2C(=O)[C@@H]2CCCN2C(=O)[C@@H]2CCCN2C(=O)[C@H](CCCNC(=N)N)NC(=O)CNC(=O)[C@H](CO)NC(=O)[C@H](CO)NC(=O)[C@@H]2CCCN2C(=O)CNC(=O)CNC(=O)[C@H](CC(=O)O)NC(=O)[C@H](CCCCN)NC(=O)[C@H](CC(C)C)NC(=O)[C@H](Cc2c[nH]c3ccccc23)NC(=O)[C@H](CCC(N)=O)NC1=O` [E5_SS] (H-EEECVRLYIQWLKDGGPSSGRPPPC-OH; disulfide 4-25), the “TCEP: Elapsed time to steady state” value is given as “≈1 h”, the “TCEP: Conversion rate” value turned out to be 93%, the “TCEP: k1” value is 0.308 M⁻¹ s⁻¹ and the “TCEP: t1/2 of reduction” value is 14 min.
On to `CC[C@H](C)[C@@H]1NC(=O)[C@H](Cc2ccc(O)cc2)NC(=O)[C@H](CC(C)C)NC(=O)[C@H](CCCNC(=N)N)NC(=O)[C@H](C(C)C)NC(=O)[C@@H](NC(=O)[C@H](CCC(=O)O)NC(=O)[C@H](CCC(=O)O)NC(=O)[C@H](CCC(=O)O)NC(=O)[C@H](CCSC)NC(=O)[C@H](CCC(N)=O)NC(=O)[C@H](CCCCN)NC(=O)[C@H](CO)NC(=O)[C@H](CC(C)C)NC(=O)[C@@H](N)CC(=O)O)CSSC[C@@H](C(=O)O)NC(=O)[C@@H]2CCCN2C(=O)[C@@H]2CCCN2C(=O)[C@@H]2CCCN2C(=O)[C@H](CCCNC(=N)N)NC(=O)CNC(=O)[C@H](CO)NC(=O)[C@H](CO)NC(=O)[C@@H]2CCCN2C(=O)CNC(=O)CNC(=O)[C@H](CC(=O)O)NC(=O)[C@H](CCCCN)NC(=O)[C@H](CC(C)C)NC(=O)[C@H](Cc2c[nH]c3ccccc23)NC(=O)[C@H](CCC(N)=O)NC1=O` [E11_SS] (H-DLSKQMEEECVRLYIQWLKDGGPSSGRPPPC-OH; disulfide 10-31), for which the “TCEP: Elapsed time to steady state” value is given as “≈5–6 h”, the “TCEP: Conversion rate” value is 94%, the “TCEP: k1” value is 0.0613 M⁻¹ s⁻¹ and the “TCEP: t1/2 of reduction” value is 67 min.
